We go through 3 substances from ChEMBL document CHEMBL1909046, “DrugMatrix in vitro pharmacology data”.

Series [1] concerns the target Mitogen-activated protein kinase 14 (Homo sapiens, UniProt Q16539). The arrangement: species or system Escherichia coli.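 Note: inhibition of p38alpha enzyme activity in a biochemical kinase assay, with myelin basic protein serving as substrate; in other assays of this panel Not Active means under 50% inhibition at 10 µM.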
Series [2] can be described thus: DRUGMATRIX: Phosphodiesterase PDE3 enzyme inhibition (substrate: [3H]cAMP + cAMP). It is filed as tissue-based, Homo sapiens. The following applies: platelet; Not Active = under 50% inhibition at 10 µM.
The target in series [3] is Vascular endothelial growth factor receptor 1 (Homo sapiens, UniProt P17948). It is filed as cell-based. The following applies: huvec. Note: in other assays of this panel Not Active means under 50% inhibition at 10 µM.
A further series deals with T1, Endothelin-1 receptor (Homo sapiens, UniProt P25101).
T1 sequence (P25101 whole entry): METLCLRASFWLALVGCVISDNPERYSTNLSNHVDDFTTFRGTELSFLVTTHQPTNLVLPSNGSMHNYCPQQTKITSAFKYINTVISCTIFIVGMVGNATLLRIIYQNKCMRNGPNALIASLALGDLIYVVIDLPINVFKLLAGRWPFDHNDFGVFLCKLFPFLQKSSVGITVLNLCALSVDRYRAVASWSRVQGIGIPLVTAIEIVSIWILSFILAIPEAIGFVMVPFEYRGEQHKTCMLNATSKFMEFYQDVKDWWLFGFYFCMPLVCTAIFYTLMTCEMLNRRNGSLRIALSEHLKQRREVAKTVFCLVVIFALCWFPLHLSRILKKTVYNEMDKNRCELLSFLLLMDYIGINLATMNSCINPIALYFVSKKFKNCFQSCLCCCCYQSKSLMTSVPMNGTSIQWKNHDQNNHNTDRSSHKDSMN
It is filed as cell membranes, CHO-K1, Membrane. The following applies: cho-k1.

The target of the next series is Cytochrome P450 2C9 (Homo sapiens, UniProt P11712). To be noted: bti-tn-5b1-4. Note: in other assays of this panel Not Active means under 50% inhibition at 10 µM.
The nature of series [4]: DRUGMATRIX: Sigma2 radioligand binding (ligand: [3H] Ifenprodil). The series is classed as cell membranes, Rattus norvegicus, Wistar, Brain, Membrane. To be noted: Not Active = under 50% inhibition at 10 µM.
A further series concerns the target Acetylcholinesterase (Homo sapiens, UniProt P22303). The series is described as follows: DRUGMATRIX: Acetylcholinesterase enzyme inhibition (substrate: acetylthiocholine). The series is classed as cell-based, HEK293. To be noted: hek293; Not Active = under 50% inhibition at 10 µM.
The target in the next series is Substance-P receptor (Homo sapiens, UniProt P25103). The series is classed as cell membranes, CHO, Membrane. The following applies: cho. Note: in other assays of this panel Not Active means under 50% inhibition at 10 µM.

pIC50: −log10 of the molar value.

Sequence of Mitogen-activated protein kinase 14 (Q16539 whole entry): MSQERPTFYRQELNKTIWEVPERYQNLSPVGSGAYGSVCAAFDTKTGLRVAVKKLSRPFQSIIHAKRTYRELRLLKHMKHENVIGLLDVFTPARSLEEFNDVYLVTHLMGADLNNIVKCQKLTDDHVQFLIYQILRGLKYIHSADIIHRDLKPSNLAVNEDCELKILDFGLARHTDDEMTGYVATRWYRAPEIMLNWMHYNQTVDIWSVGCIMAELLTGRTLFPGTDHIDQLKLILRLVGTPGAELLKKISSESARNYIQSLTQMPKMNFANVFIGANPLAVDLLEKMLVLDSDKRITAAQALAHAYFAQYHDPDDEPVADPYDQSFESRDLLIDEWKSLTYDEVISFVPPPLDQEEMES
Sequence of Substance-P receptor (P25103 whole entry): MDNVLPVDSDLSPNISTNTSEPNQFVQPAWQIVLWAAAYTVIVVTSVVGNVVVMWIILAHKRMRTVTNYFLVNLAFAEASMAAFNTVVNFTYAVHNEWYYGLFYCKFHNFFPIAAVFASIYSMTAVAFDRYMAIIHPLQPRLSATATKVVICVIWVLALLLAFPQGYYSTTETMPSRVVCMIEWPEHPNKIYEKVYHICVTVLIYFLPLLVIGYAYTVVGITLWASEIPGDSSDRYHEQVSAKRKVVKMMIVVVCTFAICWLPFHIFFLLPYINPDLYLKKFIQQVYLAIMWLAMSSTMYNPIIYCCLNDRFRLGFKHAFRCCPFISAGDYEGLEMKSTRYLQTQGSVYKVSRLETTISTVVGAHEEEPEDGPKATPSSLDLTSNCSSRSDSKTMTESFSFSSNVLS
Sequence of Cytochrome P450 2C9 (P11712 whole entry): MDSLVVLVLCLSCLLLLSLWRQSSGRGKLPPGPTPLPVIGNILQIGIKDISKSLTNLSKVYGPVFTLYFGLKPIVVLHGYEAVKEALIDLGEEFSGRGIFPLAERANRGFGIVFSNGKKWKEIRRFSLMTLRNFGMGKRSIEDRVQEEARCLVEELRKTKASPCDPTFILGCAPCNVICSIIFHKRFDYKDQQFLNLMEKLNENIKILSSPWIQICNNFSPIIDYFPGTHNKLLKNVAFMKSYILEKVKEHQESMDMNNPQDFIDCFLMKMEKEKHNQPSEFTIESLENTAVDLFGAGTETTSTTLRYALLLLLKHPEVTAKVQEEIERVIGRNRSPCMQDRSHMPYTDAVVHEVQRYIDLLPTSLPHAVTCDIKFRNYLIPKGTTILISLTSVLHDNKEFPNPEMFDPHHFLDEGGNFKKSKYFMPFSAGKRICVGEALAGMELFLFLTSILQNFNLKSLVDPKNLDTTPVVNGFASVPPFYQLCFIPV
Sequence of Vascular endothelial growth factor receptor 1 (P17948 whole entry): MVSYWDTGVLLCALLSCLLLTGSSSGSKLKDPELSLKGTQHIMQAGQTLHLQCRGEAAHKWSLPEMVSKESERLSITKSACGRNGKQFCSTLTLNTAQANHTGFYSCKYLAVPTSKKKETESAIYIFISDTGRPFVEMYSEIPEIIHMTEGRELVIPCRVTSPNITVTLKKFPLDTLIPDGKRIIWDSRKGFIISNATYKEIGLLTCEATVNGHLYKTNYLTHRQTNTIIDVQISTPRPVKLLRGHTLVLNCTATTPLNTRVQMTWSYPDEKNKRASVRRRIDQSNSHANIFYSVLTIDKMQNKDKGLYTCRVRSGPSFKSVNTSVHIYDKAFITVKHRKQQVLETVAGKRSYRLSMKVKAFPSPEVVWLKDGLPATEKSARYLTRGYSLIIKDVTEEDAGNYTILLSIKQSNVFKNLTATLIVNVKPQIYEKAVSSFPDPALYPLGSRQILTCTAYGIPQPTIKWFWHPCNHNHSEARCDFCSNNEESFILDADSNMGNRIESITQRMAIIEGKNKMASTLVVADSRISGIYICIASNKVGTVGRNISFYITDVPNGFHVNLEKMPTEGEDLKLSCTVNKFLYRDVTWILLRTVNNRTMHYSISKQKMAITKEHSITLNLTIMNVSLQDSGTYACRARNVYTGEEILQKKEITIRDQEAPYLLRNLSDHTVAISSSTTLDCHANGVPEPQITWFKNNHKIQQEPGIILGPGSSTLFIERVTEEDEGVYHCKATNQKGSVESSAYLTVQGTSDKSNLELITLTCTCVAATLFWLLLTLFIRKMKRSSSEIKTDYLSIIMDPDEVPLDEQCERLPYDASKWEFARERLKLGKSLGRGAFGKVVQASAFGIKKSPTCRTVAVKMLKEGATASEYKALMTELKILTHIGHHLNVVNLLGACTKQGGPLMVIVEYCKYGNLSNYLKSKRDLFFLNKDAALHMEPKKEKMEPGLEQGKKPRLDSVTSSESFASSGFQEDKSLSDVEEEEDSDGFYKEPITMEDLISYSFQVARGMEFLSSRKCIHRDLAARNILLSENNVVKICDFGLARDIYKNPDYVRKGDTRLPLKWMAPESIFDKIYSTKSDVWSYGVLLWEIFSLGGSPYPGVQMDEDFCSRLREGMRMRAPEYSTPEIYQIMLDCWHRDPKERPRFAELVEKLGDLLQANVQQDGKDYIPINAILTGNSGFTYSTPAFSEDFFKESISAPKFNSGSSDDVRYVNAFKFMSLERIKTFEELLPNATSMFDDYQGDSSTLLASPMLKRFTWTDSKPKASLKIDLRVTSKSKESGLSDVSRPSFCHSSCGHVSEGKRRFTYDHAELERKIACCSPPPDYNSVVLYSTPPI
Sequence of Acetylcholinesterase (P22303 whole entry): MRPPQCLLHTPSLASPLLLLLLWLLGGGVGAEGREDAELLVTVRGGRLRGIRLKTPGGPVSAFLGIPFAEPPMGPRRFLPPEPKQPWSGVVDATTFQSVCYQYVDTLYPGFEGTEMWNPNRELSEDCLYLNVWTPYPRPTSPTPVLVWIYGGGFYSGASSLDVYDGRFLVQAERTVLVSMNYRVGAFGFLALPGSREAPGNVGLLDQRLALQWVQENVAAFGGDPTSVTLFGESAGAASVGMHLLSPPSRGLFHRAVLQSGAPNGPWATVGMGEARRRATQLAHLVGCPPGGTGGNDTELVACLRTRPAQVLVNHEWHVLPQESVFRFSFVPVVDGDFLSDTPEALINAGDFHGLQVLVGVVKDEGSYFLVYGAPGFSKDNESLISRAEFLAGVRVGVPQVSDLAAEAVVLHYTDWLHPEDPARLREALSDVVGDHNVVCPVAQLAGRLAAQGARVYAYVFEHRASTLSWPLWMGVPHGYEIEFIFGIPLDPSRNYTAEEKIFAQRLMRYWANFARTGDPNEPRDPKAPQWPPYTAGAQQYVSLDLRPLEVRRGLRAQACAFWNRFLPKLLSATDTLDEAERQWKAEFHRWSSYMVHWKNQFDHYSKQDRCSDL

For the substance CADMIUM ACETATE, the IC50 entry (in series [1]; in series [2]; in series [3]; on Endothelin-1 receptor; against Cytochrome P450 2C9; in series [4]) was “Not Active” throughout. Besides, the IC50 result on Acetylcholinesterase and on Substance-P receptor was “Not Active” throughout. Further, the Ki entry (in series [1]; in series [2]; in series [3]; on Endothelin-1 receptor; at Cytochrome P450 2C9; in series [4]) was “Not Active” throughout. In addition, the Ki result on Acetylcholinesterase and on Substance-P receptor was “Not Active” each time.

Turning to LEAD (II) ACETATE, the IC50 result (in series [1]; in series [2]; in series [3]; against Endothelin-1 receptor; against Cytochrome P450 2C9; in series [4]) was “Not Active” throughout. In addition, the IC50 entry on Acetylcholinesterase and against Substance-P receptor was “Not Active” throughout. Moreover, the Ki entry (in series [1]; in series [2]; in series [3]; at Endothelin-1 receptor; on Cytochrome P450 2C9; in series [4]) was “Not Active” in each case. For the same substance, the Ki entry on Acetylcholinesterase and on Substance-P receptor was “Not Active” each time.

As for LIPOPOLYSACCHARIDE E. COLI O55:B5, the pIC50 in series [1] (read-out: IC50) is 7.22. In addition, the IC50 entry (in series [2]; in series [3]; against Endothelin-1 receptor; on Cytochrome P450 2C9; in series [4]; at Acetylcholinesterase) was “Not Active” each time. At Substance-P receptor, the IC50 entry is “Not Active”. Further, the Ki entry (in series [2]; in series [3]; on Endothelin-1 receptor; on Cytochrome P450 2C9; in series [4]; at Acetylcholinesterase) was “Not Active” in each case. The Ki entry at Substance-P receptor is “Not Active”.
